The target of one experiment is T1, human C3aR (Homo sapiens, UniProt Q16581).
T1 sequence (Q16581 1-482): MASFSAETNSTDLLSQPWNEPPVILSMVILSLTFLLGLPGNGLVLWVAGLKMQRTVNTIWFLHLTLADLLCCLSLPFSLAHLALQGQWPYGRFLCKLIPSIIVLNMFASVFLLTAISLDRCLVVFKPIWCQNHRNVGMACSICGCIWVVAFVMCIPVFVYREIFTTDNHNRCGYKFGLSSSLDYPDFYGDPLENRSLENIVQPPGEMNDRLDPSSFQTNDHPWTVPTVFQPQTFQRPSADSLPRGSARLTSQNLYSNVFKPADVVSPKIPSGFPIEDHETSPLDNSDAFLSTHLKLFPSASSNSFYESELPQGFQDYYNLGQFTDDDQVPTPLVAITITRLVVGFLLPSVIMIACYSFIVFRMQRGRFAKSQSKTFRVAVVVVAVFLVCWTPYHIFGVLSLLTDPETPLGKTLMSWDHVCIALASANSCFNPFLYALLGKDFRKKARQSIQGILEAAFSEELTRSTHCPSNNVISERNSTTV
Kind of experiment: phospho-ERK1/2 assay in CHO-C3aR cells. Format: cell-based. To be noted: efficacy relative to hC3a; fold baseline normalised; n = 3-4. The procedure:
Cell lines for this study were cultured as previously described ([20]). Non-transfected CHO-K1 cells or CHO cells stably expressing the human C3aR (CHO-C3aR; Product # ES-730-C, PerkinElmer, Melbourne, Australia) were maintained in Ham’s F12 medium containing 10% foetal bovine serum (FBS), 100 IU/ml penicillin and 100 μg/ml streptomycin, with additional 400 μg/ml G418 (In vivoGen, San Diego, USA) added for CHO-C3aR cell culture. HEK293 cells were maintained in DMEM medium containing 10% FBS, 100 IU/ml penicillin and 100 μg/ml streptomycin. All cell lines were maintained in T175 flasks (37°C, 5% CO2) and subcultured at 80-90% confluency using 0.05% trypsin-EDTA in DPBS.
(§1) Ligand-induced ERK1/2 phosphorylation was assessed using the AlphaLISA Surefire Ultra p-ERK1/2 (Thr202/Tyr204) kit (PerkinElmer, Melbourne, Australia) following the manufacturer’s protocol as previously described ([18], [20], [22]). Briefly, CHO-K1, CHO-C3aR, CHO-C5aR1, HMDMs (50,000/well) or BMDMs (90,000/well) were seeded in tissue culture-treated 96-well plates (Corning, Corning, USA) for 24 h and serum-starved overnight. All ligand dilutions were prepared in serum-free medium (SFM) containing 0.1% BSA. For inhibition assays, cells were pre-treated with the following ligands (5 µM SB290157, or respective concentrations of hC3a, mC3a, hC5a, hTLQP-21, and mTLQP-21) or the solvent-only control for 30 min before agonist (hC3a, hTLQP-21 and mTLQP-21) addition. The concentration and identity of the ligands are described in detail in the figure legends. For stimulation, cells were treated with ligands at the indicated concentrations for 10 min at RT and then immediately lysed using AlphaLISA lysis buffer on a microplate shaker (450 rpm, 10 min). For the detection of phospho-ERK1/2 content, cell lysate (5 μL/well) was transferred to a 384-well ProxiPlate (PerkinElmer, Melbourne, Australia) and added to the donor and acceptor reaction mix (2.5 μL/well, respectively), followed by a 2-h incubation at RT in the dark. On a Tecan Spark 20M (Tecan, Männedorf, Switzerland), the plate was measured using standard AlphaLISA settings.
(§2) All experiments were conducted in triplicates and repeated on three separate occasions unless otherwise specified. Data was analysed using GraphPad software (Prism 9.1). Data from each individual repeat was normalised accordingly (as specified in the figure legends) before being combined and expressed as mean ± standard error of the mean (S.E.M.) unless otherwise described. For all dose-response studies, logarithmic concentration-response curves were plotted using combined data and analysed to determine the respective potency values. Statistical analysis was performed using two-way ANOVA with Dunnett’s post hoc analysis. Donor-matched comparisons were made for HMDM experiments. Differences were deemed significant when p < 0.05.
Figure 1 hTLQP-2 and mTLQP-21 activate ERK signalling in CHO-K1 and CHO-C3aR cells. hTLQP-21, mTLQP-21 and plasma-derived human C3a were tested in (A) non-transfected CHO-K1 or (B) CHO cells stably expressing human C3aR. CHO cells were serum-starved overnight and then stimulated with various ligands for 10 min before being lysed. The phospho-ERK1/2 content in the lysate was measured and expressed as fold-baseline before being combined. The maximum relative pERK1/2 activity induced by each ligand is shown in (C). Data represent mean ± S.E.M. of triplicate measurements from 3-4 independent experiments (n = 3-4). Two-way ANOVA with Dunnett’s post hoc analysis. *P < 0.05, ***P < 0.001, ****P < 0.0001. Ligand treated versus medium treated cells for each cell line.

In experiment [1] the test system is HMDM (endogenous human C3aR). In kind it is cell-based. The settings on record: 10 min stimulation at RT, n = 4 donors.
Description: HMDMs were generated and cultured as previously described ([20]), with experiments approved by The University of Queensland Human Research Ethics Committee. Briefly, human buffy coat blood from anonymous healthy donors was obtained through the Australian Red Cross Blood Service (Brisbane, Australia). Human CD14+ monocytes were isolated from blood using Lymphoprep density centrifugation (STEMCELL, Melbourne, Australia) followed by CD14+ MACS magnetic bead separation (Miltenyi Biotec, Sydney, Australia). The isolated monocytes were differentiated for 7 days in Iscove’s Modified Dulbecco’s Medium supplemented with 10% FBS, 100 IU/ml penicillin, 100 μg/ml streptomycin and 15 ng/ml recombinant human macrophage colony stimulating factor (BioLegend, San Diego, USA) on 10 mm square dishes (Bio-strategy, Brisbane, Australia). Non-adherent cells were removed by washing with DPBS, and the adherent differentiated HMDMs were harvested by gentle scraping.
as §1, §2
Figure 3 Agonistic and antagonistic activities of hTLQP-21 and mTLQP-21 in human monocyte-derived macrophages. Serum-starved HMDMs (50,000/well) were (A) stimulated with medium or respective ligands at the indicated concentrations for 10 min and then lysed, or (B) pre-treated with 5 µM SB290157 for 30 min prior to stimulation. (C) HMDMs were pre-treated with 10 μM hTLQP-21 or mTLQP-21 for 30 min before being stimulated with respective concentrations of human C3a. (D) HMDMs were pre-treated with 10 nM hC3a, 10 μM hTLQP-21 or mTLQP-21 for 30 min before being stimulated with the same concentrations of the above ligands for 10 min and then lysed. (E) HMDMs were pre-treated with 10 μM hTLQP-21 or mTLQP-21 for 30 min before being stimulated with respective concentrations of human C5a for 10 min and then lysed. […]

In the next experiment the test system is BMDM (murine C3aR). In kind it is cell-based, mouse. The settings on record: wild-type C57BL/6J BMDMs, 90,000/well; 10 min stimulation at RT; AlphaLISA p-ERK1/2; n = 3 mice; C3a is recombinant mouse C3a; read-out: EC50 (pERK1/2), BMDM. The procedure: Mouse bone marrow-derived macrophages (BMDMs) were obtained and cultured as previously described ([20], [21]). All experiments using mice were approved by the University of Queensland animal ethics committee. Wild-type and C3aR^-/- mice on a C57BL/6J genetic background (n = 3) were sacrificed by cervical dislocation. The tibia was removed and sterilised. Upon removal of both epiphyses, bone marrow cells were harvested by flushing the central cavity with complete RPMI-1640 medium using a 10 ml syringe attached to a 25-gauge needle. Cells were then cultured in complete RPMI-1640 medium (containing 10 % FBS, 100 IU/ml penicillin, 100 μg/ml streptomycin) supplemented with 100 ng/ml recombinant human macrophage colony stimulating factor on 10 mm square dishes. Mature adherent macrophages for assays were harvested on day 6-7 by gentle scraping.
as §1, §2
Figure 4 TLQP-21 triggers ERK signalling through C3aR in murine bone marrow-derive macrophages. BMDMs (90,000/well) from wildtype mice (A) or with C3aR knockout mice (B), were serum-starved overnight and then stimulated with respective ligands at the indicated concentrations for 10 min. The phospho-ERK1/2 content in the cell lysate was measured and normalised to the medium only-treated levels before being combined. Data represent mean ± S.E.M. of triplicate measurements using cells from 3 mice (n = 3).
(Alpha assays give light when donor and acceptor beads are brought close together.)

Where two headings read alike, the source gives them in different places.

Consider `CC(C)C[C@H](NC(=O)[C@H](C)NC(=O)[C@H](CO)NC(=O)[C@@H]1CCCN1C(=O)[C@@H]1CCCN1C(=O)[C@H](CCC(N)=O)NC(=O)[C@H](CC(C)C)NC(=O)[C@@H](N)[C@@H](C)O)C(=O)N[C@@H](CCCNC(=N)N)C(=O)N[C@@H](CCCNC(=N)N)C(=O)N[C@@H](CCCNC(=N)N)C(=O)N[C@@H](Cc1c[nH]cn1)C(=O)N[C@@H](Cc1ccc(O)cc1)C(=O)N[C@@H](Cc1c[nH]cn1)C(=O)N[C@@H](Cc1c[nH]cn1)C(=O)N[C@@H](C)C(=O)N[C@@H](CC(C)C)C(=O)N1CCC[C@H]1C(=O)N1CCC[C@H]1C(=O)N[C@@H](CO)C(=O)N[C@@H](CCCNC(=N)N)C(=O)O` [hTLQP-21], for which the “% C3a activity ± SE, CHO-C3aR” value on human C3aR is 87.0 ± 3.5%. Also, the EC50 in experiment [1] (estimated, read-out: estimated EC50 (pERK1/2), HMDM) was 14800 nM; in the experiment with BMDM (murine C3aR) it was 401 nM.

For the compound “mC3a: Recombinant mouse C3a, purchased from R&D Systems”, the EC50 in the experiment on BMDM (murine C3aR) was 8.4 nM.

For the compound `CC(C)C[C@H](NC(=O)[C@@H](N)[C@@H](C)O)C(=O)N[C@@H](CCC(N)=O)C(=O)N1CCC[C@H]1C(=O)N1CCC[C@H]1C(=O)N[C@@H](C)C(=O)N[C@@H](CO)C(=O)N[C@@H](CO)C(=O)N[C@@H](CCCNC(=N)N)C(=O)N[C@@H](CCCNC(=N)N)C(=O)N[C@@H](CCCNC(=N)N)C(=O)N[C@@H](Cc1c[nH]cn1)C(=O)N[C@@H](Cc1ccccc1)C(=O)N[C@@H](Cc1c[nH]cn1)C(=O)N[C@@H](Cc1c[nH]cn1)C(=O)N[C@@H](C)C(=O)N[C@@H](CC(C)C)C(=O)N1CCC[C@H]1C(=O)N1CCC[C@H]1C(=O)N[C@@H](C)C(=O)N[C@@H](CCCNC(=N)N)C(=O)O` [mTLQP-21], on human C3aR, the “% C3a activity ± SE, CHO-C3aR” value was found to be 91.8 ± 2.7%. The EC50 in experiment [1] (primary human macrophages, 50,000/well, AlphaLISA p-ERK1/2, read-out: EC50 (pERK1/2), HMDM) came to 2850 nM; with BMDM (murine C3aR) it was 96.5 nM.

(Values after PMC9909341, “TLQP-21 is a low potency partial C3aR activator on human primary macrophages” (Frontiers in Immunology, 2023).)
